For three molecules, Ki and Km results are on record in article PMC10833137, “Characterization of a novel 4-guanidinobutyrase from Candida parapsilosis” (FEMS Yeast Research, 2024).

The target in data set [1] is T1, CpGBase (C. parapsilosis 4-guanidinobutyrase; CparGBase) (Lodderomyces parapsilosis, UniProt G8B5B7).
T1 construct: gene CPAR2_602270
T1 sequence (G8B5B7 16-367 limits assumed): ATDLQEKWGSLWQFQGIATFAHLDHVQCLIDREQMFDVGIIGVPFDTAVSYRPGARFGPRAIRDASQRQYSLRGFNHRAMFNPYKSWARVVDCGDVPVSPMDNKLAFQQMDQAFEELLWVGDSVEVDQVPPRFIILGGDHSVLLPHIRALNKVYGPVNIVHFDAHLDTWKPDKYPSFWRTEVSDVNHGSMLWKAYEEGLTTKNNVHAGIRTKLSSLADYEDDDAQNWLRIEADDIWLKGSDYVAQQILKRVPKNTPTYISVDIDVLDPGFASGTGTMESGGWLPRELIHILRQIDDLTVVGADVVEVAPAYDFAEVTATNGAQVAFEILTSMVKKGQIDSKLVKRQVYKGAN
As to the kind of experiment: modified Archibald urea assay, product inhibition, Cheng-Prusoff. It is filed as biochemical. The source says: modified Archibald urea assay, product inhibition, Cheng-Prusoff on CpGBase (C. parapsilosis 4-guanidinobutyrase; CparGBase)

The target of the next data set is T2, AnGBase (A. niger GBase) (Aspergillus niger, UniProt W8R465).
T2 sequence (W8R465 21-422 limits assumed): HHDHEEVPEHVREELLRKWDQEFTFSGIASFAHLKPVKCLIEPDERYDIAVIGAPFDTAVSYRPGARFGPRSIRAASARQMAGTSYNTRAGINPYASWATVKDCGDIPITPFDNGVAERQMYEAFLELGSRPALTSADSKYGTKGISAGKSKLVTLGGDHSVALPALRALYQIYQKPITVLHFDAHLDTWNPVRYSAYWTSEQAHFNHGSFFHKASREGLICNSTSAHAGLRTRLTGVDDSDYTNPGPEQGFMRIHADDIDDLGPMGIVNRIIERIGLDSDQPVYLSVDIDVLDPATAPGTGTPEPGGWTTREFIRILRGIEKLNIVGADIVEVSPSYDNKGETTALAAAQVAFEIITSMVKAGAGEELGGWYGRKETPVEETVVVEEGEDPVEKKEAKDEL
Kind of data set: product inhibition, Cheng-Prusoff. It is filed as biochemical. The source says:
product inhibition, Cheng-Prusoff on AnGBase (A. niger GBase)

Substrate in data set [2]: N=C(N)NCCCC(=O)O
Kind of data set: purified protein. It is filed as biochemical, Lodderomyces parapsilosis. The settings on record: 20 mM phosphate buffer, 37 °C, 20 min, enriched enzyme.

Substrate in data set [3]: N=C(N)NCCC(=O)O
As to the kind of experiment: purified protein. It is filed as biochemical, Lodderomyces parapsilosis. Particulars: 20 mM phosphate buffer, 37 °C, 20 min, enriched enzyme.

Read-outs that look alike come from different tables or passages of the source.

As to `NCCCC(=O)O` [GABA], the Ki was determined as 3.1 ± 0.5 mM in data set [1] (read-out: KI / GABA) and 4.1 ± 1.1 mM at AnGBase (A. niger GBase) (read-out: KI / GABA).
On to `NCCC(=O)O` [β-alanine], for which the values for the Ki (in data set [1] (read-out: KI / β-alanine); at AnGBase (A. niger GBase) (read-out: KI / β-alanine)) were 7.8 ± 1.2 mM and 48.7 ± 0.8 mM, respectively.

B1: CpGBase (C. parapsilosis 4-guanidinobutyrase; CparGBase) (Lodderomyces parapsilosis CDC317) (protein)
chain: ATDLQEKWGSLWQFQGIATFAHLDHVQCLIDREQMFDVGIIGVPFDTAVSYRPGARFGPRAIRDASQRQYSLRGFNHRAMFNPYKSWARVVDCGDVPVSPMDNKLAFQQMDQAFEELLWVGDSVEVDQVPPRFIILGGDHSVLLPHIRALNKVYGPVNIVHFDAHLDTWKPDKYPSFWRTEVSDVNHGSMLWKAYEEGLTTKNNVHAGIRTKLSSLADYEDDDAQNWLRIEADDIWLKGSDYVAQQILKRVPKNTPTYISVDIDVLDPGFASGTGTMESGGWLPRELIHILRQIDDLTVVGADVVEVAPAYDFAEVTATNGAQVAFEILTSMVKKGQIDSKLVKRQVYKGAN
Usually Km stands for the concentration of substrate that gives half-maximal velocity. As for B1, the Km in “purified protein [2]” worked out at 4.6 ± 0.5 mM; in the data set “purified protein [3]” it was 9.6 ± 0.4 mM.
